{"source": "patent US5278181A", "about": "“Soluble alkyl[5-[amino (phenyl)methyl]-1H-benzimidazol-2-yl] carbamate anthelmintics” (priority 1992, dated 1994)", "key": {"Brugia pahangi [1]": {"test_system": "Brugia pahangi", "assay": "Antifilarial dual infection screen in jirds: adult B. pahangi burden", "format": "in vivo, in Mongolian jirds", "conditions": "SC, day 56", "source_text": "(§1) Dual infections of the filarial worms Brugia pahangi and Acanthocheilonema viteae in jirds are used routinely for antifilarial screening [McCall, J. W., McTier, T. L., and Rowan, S. J., \"In vivo models for evaluating potential antifilarial agents\", Onchocerciasis/Filariasis (Proceedings of a Symposium sponsored by the World Health Organization), Kalamazoo, Mich., Apr. 8-10, 23-24 (1986)].\n(§2) For this dual infection screen, male Mongolian jirds weighing 50-60 g are infected SC with 10 (5 male and 5 female) adult A. viteae, transplanted under sodium pentobarbital anesthesia (48 mg/kg) from donor hamsters infected SC 8 weeks earlier. Two weeks later, 20 (10 male and 10 female) adult B. pahangi, taken from donor jirds infected IP 8 weeks earlier, are transplanted into the peritoneal cavity of each jird under sodium pentobarbital anesthesia. After an additional week, when the jirds have acceptable levels of microfilaremia, they are randomly allocated to treatment groups of 3 animals each and a nontreated group of 4-6 animals. Microfilaremia is determined on days 0 (just prior to the first dose), 4 and 56 post-treatment. Unless indicated otherwise, compounds are suspended in hydroxyethylcellulose (0.5%) - Tween 80 (0.1%) and administered SC at 100 mg/kg/day for 5 consecutive days. All jirds are killed on day 56 post-treatment to determine the effects of drugs on adults of A. viteae and B. pahangi. Live worms are identified as to species, noted as to sex, and counted. The number of dead and/or encapsulated worms is also recorded. A reduction of ≥80% in microfilaremia or ≥50% in adult worm burden (either species) compared with pre-treatment microfilaremia or non-treated control worm burden, respectively, is considered to be significant. For secondary testing with this dual infection screen, groups of 7 animals each are used. For oral dosing, drugs are dissolved or suspended in hydroxyethylcellulose - Tween 80 and administered by gavage."}, "Acanthocheilonema viteae": {"test_system": "Acanthocheilonema viteae", "assay": "Antifilarial dual infection screen in jirds: adult A. viteae burden and microfilaremia", "format": "in vivo, in Mongolian jirds", "conditions": "25 mg/kg/day × 5 days, SC", "source_text": "as §1, §2"}, "Brugia pahangi [2]": {"test_system": "Brugia pahangi", "assay": "Antifilarial effect in beagle dogs infected with Brugia pahangi", "format": "in vivo", "source_text": "The infective larvae of B. pahangi were produced and collected as described by McCall [J. Georgia Entomol. Soc. 16:283-293, (1981)]. The dogs were given 100 L3 of B. pahangi by subcutaneous injection (SC) into the dorsum of each hind paw or 200 L3 in one hind paw (i.e., a total inoculum of 200 L3 per dog).\nThe dogs were randomly allocated to treatment groups containing 4 dogs. The dogs were divided by sex and ranked by declining baseline microfilarial counts (average count based on the 5 bleedings made before the day of treatment). Those dogs which were amicrofilaremic or had very few microfilariae were excluded from the trial. Of the remaining dogs, those with the highest baseline microfilaremias were assigned to seven-dog replicates. The sex of the dogs within three of the replicates was the same, while the fourth replicate contained dogs of both sexes. The dogs of a given sex with the highest levels of microfilaremia were placed in the same replicate. The next set of dogs of that sex with the next highest levels of microfilaremia was assigned to the next replicate, and so on until all of the replicates were filled. The dogs within each complete replicate were assigned to test groups using a table of random numbers [Ostle and Mensing, Statistics in Research, Third Edition, Iowa State University Press, Ames, Iowa, pp. 560-563, (1975)]. The test groups were likewise assigned to either control or treatment groups using the table of random numbers.\nThe first day of treatment, day 0, was approximately 144 days after infection. Drugs were administered orally as a 10% suspension in HEC-Tween 80 or in soft gelatin capsules. Drugs were administered intramuscularly or subcutaneously as a 10% suspension in peanut oil or in HEC-Tween 80. Groups of four dogs served in sham-treated controls in each experiment. All of the treatments were given by IM injection in the dorsal lumbar muscles.\n(§3) All dogs were observed frequently during each day of treatment and daily throughout the remainder of the study for any signs of reactions. In addition, the hair was shaved at the injection sites to facilitate the observation of possible tissue irritation resulting from treatment.\nBlood was collected from each dog on days 51, 43, 27, 19, and 5 before treatment to determine baseline microfilaremias and allocate the dogs to treatment groups. Blood was then collected from all dogs on the day before treatment on day -1, on days 7, 10, 14, 21, 28, 35, 42, 49, and 56 days after treatment. All bleedings were done at approximately the same time of day (11:00-12:00 E.S.T.). Two 20-μl blood films were prepared from each sample and stained with giemsa. Microfilarial counts were made from the 2 blood films.\nThe dogs were euthanized for necropsy either two or six months after the first day of treatment. Just prior to euthanasia, the dogs were given a subcutaneous injection (SC) of a two percent solution of Evans blue into the dorsum of both hind paws in order to help delineate the lymphatic vessels. This was followed at least 30 minutes later with a lethal dose of Fatal-Plus® (Vortech Pharmaceuticals, Dearborn, Mich.). A limited necropsy was performed on each dog with examination of the afferent and efferent lymphatics of both hindlimbs and the popliteal, inguinal, internal and external iliac, and lumbar lymph nodes. Any live or dead worms seen were removed. These vessels and lymph nodes were removed, teased, and soaked overnight in normal saline to allow any worms to migrate out of the tissues. The condition of the worms, their sex and number, and the location from which they were recovered were noted.\nEffectiveness against the adult parasites was determined as follows: [formula] Effectiveness against microfilariae for a given day after treatment was determined as follows: [formula]\nThe adult B. pahangi counts and the microfilarial counts were compared using a one way analysis of variance (ANOVA). […]"}, "[3]": {"assay": "Local muscle irritation at injection site in beagle dogs", "format": "in vivo", "conditions": "IM, 12.5-50 mg/kg/day for 2 to 3 days", "source_text": "as §3"}, "B. pahangi and A. viteae": {"test_system": "B. pahangi and A. viteae", "assay": "Antifilarial activity in jirds, dual infection, summary in words", "format": "in vivo", "conditions": "both oral and parenteral routes", "source_text": "as §1\nFor this dual infection screen, male Mongolian jirds weighing 50-60 g are infected SC with 10 (5 male and 5 female) adult A. viteae, transplanted under sodium pentobarbital anesthesia (48 mg/kg) from donor hamsters infected SC 8 weeks earlier. Two weeks later, 20 (10 male and 10 female) adult B. pahangi, taken from donor jirds infected IP 8 weeks earlier, are transplanted into the peritoneal cavity of each jird under sodium pentobarbital anesthesia. After an additional week, when the jirds have acceptable levels of microfilaremia, they are randomly allocated to treatment groups of 3 animals each and a nontreated group of 4-6 animals. Microfilaremia is determined on days 0 (just prior to the first dose), 4 and 56 post-treatment. […] Live worms are identified as to species, noted as to sex, and counted. The number of dead and/or encapsulated worms is also recorded. […]"}, "Aqueous solubility": {"assay": "Aqueous solubility", "conditions": "water"}, "[4]": {"conditions": "IM, 6.25 mg/kg/day × 3, peanut oil"}, "[5]": {"conditions": "IM, 12.5 mg/kg/day × 3, peanut oil"}, "[6]": {"conditions": "IM, 25 mg/kg/day × 3, peanut oil"}, "[7]": {"conditions": "IM, 50 mg/kg/day × 1, peanut oil"}, "[8]": {"conditions": "IM, 50 mg/kg/day × 2, peanut oil"}, "[9]": {"conditions": "IM, 50 mg/kg/day × 3, peanut oil"}, "[10]": {"conditions": "PO, 200 mg/kg/day bid × 3, HEC-Tween 80"}, "[11]": {"conditions": "SC, 50 mg/kg/day × 3, HEC-Tween 80"}}, "note": "“And” between values parts separate entries of the source, which are not always exact repeats. Equal entries are not always repeated.", "data": [{"smiles": "COC(=O)Nc1nc2cc(C(N)c3ccc(F)cc3)ccc2[nH]1", "note": "(racemic) [Example 1, Methyl (±)-[5-[Amino(4-Fluorophenyl)Methyl]-1H-Benzimidazol-2-yl]Carbamate]", "values": [{"measurement": "% Macrofilarial reduction, B. pahangi", "setting": "Brugia pahangi [1]; 1.56 mg/kg/day × 5 days", "result": 16, "unit": "%"}, {"measurement": "% Macrofilarial reduction, B. pahangi", "setting": "Brugia pahangi [1]; 6.25 mg/kg/day × 5 days", "result": 92, "unit": "%"}, {"measurement": "% Macrofilarial reduction, B. pahangi", "setting": "Brugia pahangi [1]; 12.5 mg/kg/day × 5 days", "result": 100, "unit": "%"}, {"measurement": "% Macrofilarial reduction, B. pahangi", "setting": "Brugia pahangi [1]; 25 mg/kg/day × 5 days", "result": 100, "unit": "%"}, {"measurement": "% Microfilarial reduction, A. viteae, Day 4", "setting": "Acanthocheilonema viteae; Day 4", "result": 0, "unit": "%"}, {"measurement": "% Macrofilarial reduction, A. viteae", "setting": "Acanthocheilonema viteae; day 56", "result": 88, "unit": "%"}, {"measurement": "Dogs cured/Treated", "setting": "Brugia pahangi [2]; [4]", "result": "0/4"}, {"measurement": "Percent reduction Macrofilariae", "setting": "Brugia pahangi [2]; [4]", "result": 38, "unit": "%"}, {"measurement": "Percent reduction Microfilariae", "setting": "Brugia pahangi [2]; [4]", "result": 50, "unit": "%"}, {"measurement": "Dogs cured/Treated", "setting": "Brugia pahangi [2]; [5]", "result": "1/4"}, {"measurement": "Percent reduction Macrofilariae", "setting": "Brugia pahangi [2]; [5]", "result": 91, "unit": "%"}, {"measurement": "Percent reduction Microfilariae", "setting": "Brugia pahangi [2]; [5]", "result": 76, "unit": "%"}, {"measurement": "Dogs cured/Treated", "setting": "Brugia pahangi [2]; [6]", "result": "4/4"}, {"measurement": "Percent reduction Macrofilariae", "setting": "Brugia pahangi [2]; [6]", "result": 100, "unit": "%"}, {"measurement": "Percent reduction Microfilariae", "setting": "Brugia pahangi [2]; [6]", "result": 72, "unit": "%"}, {"measurement": "Dogs cured/Treated", "setting": "Brugia pahangi [2]; [7]", "result": "0/4"}, {"measurement": "Percent reduction Macrofilariae", "setting": "Brugia pahangi [2]; [7]", "result": 85, "unit": "%"}, {"measurement": "Percent reduction Microfilariae", "setting": "Brugia pahangi [2]; [7]", "result": 55, "unit": "%"}, {"measurement": "Dogs cured/Treated", "setting": "Brugia pahangi [2]; [8]", "result": "2/4"}, {"measurement": "Percent reduction Macrofilariae", "setting": "Brugia pahangi [2]; [8]", "result": 92, "unit": "%"}, {"measurement": "Percent reduction Microfilariae", "setting": "Brugia pahangi [2]; [8]", "result": 59, "unit": "%"}, {"measurement": "Dogs cured/Treated", "setting": "Brugia pahangi [2]; [9]", "result": "4/4"}, {"measurement": "Percent reduction Macrofilariae", "setting": "Brugia pahangi [2]; [9]", "result": 100, "unit": "%"}, {"measurement": "Percent reduction Microfilariae", "setting": "Brugia pahangi [2]; IM, 50 mg/kg/day × 3, peanut oil, 50 mg/kg/day", "result": "100% and 99%"}, {"measurement": "cure of B. pahangi infections", "setting": "Brugia pahangi [2]; IM, 12.5-50 mg/kg/day for 2 to 3 days", "result": "cured dogs of B. pahangi infections"}, {"measurement": "Percent reduction Macrofilariae", "setting": "Brugia pahangi [2]; [10]", "result": 93, "unit": "%"}, {"measurement": "Percent reduction Microfilariae", "setting": "Brugia pahangi [2]; [10]", "result": 97, "unit": "%"}, {"measurement": "Dogs cured/Treated", "setting": "Brugia pahangi [2]; PO, 200 mg/kg/day bid × 3, HEC-Tween 80, necropsied 6 months", "result": "1/3"}, {"measurement": "Dogs cured/Treated", "setting": "Brugia pahangi [2]; [11]", "result": "1/4"}, {"measurement": "Percent reduction Macrofilariae", "setting": "Brugia pahangi [2]; [11]", "result": 76, "unit": "%"}, {"measurement": "Percent reduction Microfilariae", "setting": "Brugia pahangi [2]; [11]", "result": 78, "unit": "%"}, {"measurement": "cure of B. pahangi infections", "setting": "Brugia pahangi [2]; administered orally", "result": "also curative when administered orally"}, {"measurement": "local muscle irritation", "setting": "[3]", "result": "no local muscle irritation"}, {"measurement": "antifilarial activity in jirds", "setting": "B. pahangi and A. viteae", "result": "outstanding antifilarial activity"}, {"measurement": "solubility", "setting": "Aqueous solubility", "result": 180, "unit": "µg/mL"}]}]}
